Literature values in patent publication US20100137292A1, “Pharmaceutical formulations of meloxicam” (SANOVEL ILAC SANAYI VE TICARET A.S., priority 2008, published 2010).

Solubility in alcohol (alcohol): very slightly soluble
Solubility in water (water): practically insoluble
SMILES: Cc1cnc(NC(=O)C2=C(O)c3ccccc3S(=O)(=O)N2C)s1 [Meloxicam, 4-hydroxy-2-methyl-N-(5-methyl-2-thiazolyl)-2H-1,2-benzothiazine-3-carboxamide-1,1-dioxide]
